For this experiment, the system named is ATP aptamer (Apt-POSS) (DNA, aptamer) CCACCACGGTGGTGGTGGTTGTGGTGC
Nature of the experiment: UV absorption at 260 nm after centrifugation, Langmuir fit. The settings on record: PBS, 30 min.

`Nc1ccn([C@@H]2O[C@H](COP(=O)(O)OP(=O)(O)OP(=O)(O)O)[C@@H](O)[C@H]2O)c(=O)n1`: for the setting “control nucleotide, captured less than ATP, ATP series 1 μM to 2 mM”, the binding entry is reported as “weak”.

Regarding `Nc1ncnc2c1ncn2[C@@H]1O[C@H](COP(=O)(O)OP(=O)(O)OP(=O)(O)O)[C@@H](O)[C@H]1O`, the K (0.1 mg particle/mL, aptamer on nanoparticles, apparent) amounted to 46.5 ± 18.5 µM.

Values taken from paper PMC10891265 (2024).
